The values below come from patent US7429482B2, “Screening tools for discovery of novel anabolic agents” (United States of America as represented by the Department …, priority 2005, dated 2008).

What all share (type): in vivo, rat
The test system of test [1] is IGF-1 receptor (IGF-1R). The test is described as follows: Acute denervation: IGF-1 receptor mRNA in EDL and soleus (qPCR). Here is the method: (§1) Male Wistar rats weighing 250 gm (Taconic Farms, Germantown, N.Y.) were provided food and water ad libitum and were housed in a temperature and humidity controlled environment providing a 12:12 hour day-night cycle. For surgical procedures, animals were anesthetized with ketamine/xylazine. The left sciatic nerve was exposed by blunt dissection, and a 1 to 2 mm piece of this nerve was excised just below the level of the femoral head. A sham surgery was performed on the right hind limb in which the sciatic nerve was exposed but was not transected. Model 2002 Alzet pumps were implanted subcutaneously on the back. […] A pellet containing 15 mg of testosterone (Innovative Research of America, Sarasota, Fla.) administered as a continuous infusion (5 mg/wk), or a pellet containing placebo, was inserted into a subcutaneous pouch. […]
(§2) Total RNA was extracted from skeletal muscle (20 mg) by homogenization in guanidine thiocyanate using a Polytron followed by extraction using phenol-chloroform (Chomczynski and Sacchi, Anal Biochem 162: 156-159, 1987). […] Total RNA was then eluted and quantified by absorbance at 260 nm. […] Levels of gene expression in the denervated muscle were expressed as fold induction relative to muscle from the sham-denervated leg of animals administered vehicle. […] Fold-induction was determined using the 2^−ΔΔCt method, using expression of 18S RNA as the normalization control. […]
A general note: Real-time PCR tracks product formation cycle by cycle.

The test system of test [2] is IGF-1. The test is described as follows: Chronic denervation: IGF-1 mRNA in gastrocnemius (qPCR). As for the experimental part:
as §1, with “200-250” for “250”, “Twenty eight days later, animals were anesthetized, and” for “Model 2002”, “Testosterone levels after replacement were approximately” for “A pellet containing”, “nM, a high-normal range for rats” for “mg”, “this age.” for “testosterone (Innovative Research of America, Sarasota, Fla.) administered as a continuous infusion (5 mg/wk), or a pellet containing placebo, was inserted into a subcutaneous pouch.”
as §2, with “extraction of total RNA with” for “extraction using”, “phenol-chloroform as described by” for “phenol-chloroform”, “was” for “was then”

Test [3] has as its system myogenin. Description: Chronic denervation: myogenin mRNA in gastrocnemius (qPCR). Here is the method:
Male Wistar rats weighing 200-250 gm (Taconic Farms, Germantown, N.Y.) were provided food and water ad libitum and were housed in a temperature and humidity controlled environment providing a 12:12 hour day-night cycle. For surgical procedures, animals were anesthetized with ketamine/xylazine. The left sciatic nerve was exposed by blunt dissection, and a 1 to 2 mm piece of this nerve was excised just below the level of the femoral head. A sham surgery was performed on the right hind limb in which the sciatic nerve was exposed but was not transected. Twenty eight days later, animals were anesthetized, and Alzet pumps were implanted subcutaneously on the back. […] Testosterone levels after replacement were approximately 15 nM, a high-normal range for rats of this age. Animals were sacrificed 3, 7 or 28 days after implantation of the miniosmotic pumps by inhalation of carbon dioxide. Gastrocnemius muscles were excised and weighed, then flash frozen on dry ice and stored at −80° C.
Total RNA was extracted from skeletal muscle (20 mg) by homogenization in guanidine thiocyanate using a Polytron followed by extraction of total RNA with phenol-chloroform as described by (Chomczynski and Sacchi, Anal Biochem 162: 156-159, 1987). Total RNA was further enriched using RNAeasy minicolumns (Qiagen, Valencia, Calif.). This procedure included digestion of contaminating DNA on the column with RNAse-free DNAse (Qiagen). Total RNA was eluted and quantified by absorbance at 260 nm. One μg of total RNA was used to prepare a cDNA library by reverse transcription (High Capacity cDNA Archive Kit, Applied Biosystems). Libraries were diluted 25-fold with water. Real time PCR was performed Taqman 2×PCR buffer (Applied Biosystems) using an Applied Biosystems 7500 thermocycler. Levels of gene expression in the denervated muscle were expressed as fold induction relative to muscle from the sham-denervated leg of animals administered vehicle. […] Fold-induction was determined using the 2^−ΔΔCt method, using expression of 18S RNA as the normalization control. Primers and probes used for 18S RNA, MuRF1 and myostatin were obtained through the assays by Design service of Applied Biosystems and had the sequences are shown in Table 3; probes were 5′ labeled with FAM and 3′ modified with a non-fluorescent quencher. All other primer-probe combinations used were those contained in ABI Assay on Demand kits.

For `C[C@]12CC[C@H]3[C@@H](CCC4=CC(=O)CC[C@@H]43)[C@@H]1CC[C@@H]2O` [nandrolone], the IGF-1R expression result is given as “No appreciable effects” in test [1] (denervated soleus or EDL); “tended to increase” in test [1] (sham-denervated soleus and EDL, changes not significant). Besides, the IGF-1 expression result in test [2] (denervated muscle) and in test [2] (sham-denervated muscle) was “did not alter” throughout. In addition, the myogenin expression entry in test [3] (denervated muscle, 3 or 7-days administration) was “No effects”; in test [3] (muscle not stated, first 7-days after starting administration), “did not alter”. Moreover, the “fall in myogenin expression” value in test [3] (denervated muscle, 28-days infusion) was 32%. For the same compound, in test [3] (muscle not stated (contrasted with denervated muscle), day 28 of the infusion), the “elevation of myogenin expression” value is on record as “approximately 2 fold”.
